From a melting point compilation (Tetko et al.; mined from patent text by program, amines drawn as free bases though some values may be those of a salt)

First: CS(=O)(=O)c1ccc(C(CC2CCCC2)C(=O)Nc2nccs2)cc1C(F)(F)F (stereo unspecified)
Second: CC1(C(=O)Nc2ccc(OCC3CC3)c(C(F)(F)F)c2)CC1
The melting point of the first is higher: 117 to 121 °C for the first, 84 to 85 °C for the second.

Compared with `OCC(O)CN1CCN(c2ccc(Cl)nn2)CC1` (stereo unspecified), `COc1cc2nc(N3CCN(c4ccnc(Cl)n4)CC3)cc(N)c2cc1OC` is higher in melting point: 126 to 128 °C for the first, 266 °C for the second.

First: CCOC1CC(c2ccccc2)Oc2c1ccc1c2nc(C)n1C (stereo unspecified)
Second: COC(=O)C1=C(C)NC(C)=C(Cl)C1c1ccccc1 (stereo unspecified)
The melting point of the first is higher: 177 to 178 °C for the first, 147 °C for the second.

First: c1ccc2c(NCCc3c[nH]cn3)nsc2c1
Second: Cn1c(-c2ccccc2F)c2ccsc2nc1=O
The melting point of the first is higher: 222 to 224 °C for the first, 191 to 192 °C for the second.

First: Cc1cc(C2CCCCC2)ccc1C(=O)O
Second: CC(=O)NC[C@H]1CN(c2ccc(C3CCNCC3)cc2)C(=O)O1
The melting point of the first is lower: 129 to 130 °C for the first, 146 to 148 °C for the second.

Compared with `O=C(NCCSCCNC(=O)c1cccc(Cl)c1)c1cccc(Cl)c1`, `O=C(Nc1cc(Cl)cc(Cl)c1)c1ccccc1O` is higher in melting point: 150 to 152 °C for the first, 218 to 219 °C for the second.

First: Cc1nn(C(CCCc2ccccc2)C(C)O)c2ncn(Cc3ccc(Cl)c(Cl)c3)c(=O)c12 (stereo unspecified)
Second: Cc1nn(-c2ccccn2)c2nc3ccccc3c(C)c12
The melting point of the first is higher: 160 °C for the first, 157 to 159 °C for the second.

First: O=C(Oc1ccccc1)c1cc2ccc3c4cc(F)ccc4[nH]c3c2cc1O
Second: Cc1c(-c2cn(C)c3c(-c4ccccc4)cccc23)nc2ccc(F)cc2c1C(=O)O
The melting point of the first is higher: 289 to 290 °C for the first, 107 to 108 °C for the second.

First: COC(=O)CCCCCCCNC(=O)C(COS(C)(=O)=O)NS(=O)(=O)c1ccc(Cl)cc1 (racemic)
Second: CCCCCCCCCCCC(=O)NCCCCCC(=O)OO
The melting point of the first is higher: 90 to 95 °C for the first, 70 to 75 °C for the second.

Compared with `Cc1nc(N)c2nc(CO)n(NC(C)C)c2c1C`, `CCCCCc1nc2c(N)nc3ccccc3c2n1CCCCNC(=O)Nc1ccccc1` is lower in melting point: 257 to 259 °C for the first, 159 to 160 °C for the second.

First: COC(OC)C(=O)NC(Cc1ccccc1)c1ccccc1 (stereo unspecified)
Second: COC=C(C(=O)OC)c1ccccc1CON=C(C)c1noc2ccccc12
The melting point of the first is higher: 108 to 110 °C for the first, 97 to 98 °C for the second.

First: O=C(NO)c1ccc2c(c1)CCN(C(=O)NCc1ccccc1)C2
Second: O=C(O)[C@H](Cc1ccc(O)cc1)NS(=O)(=O)c1ccc(N2CCC(c3ccccc3)CC2)cc1
The melting point of the first is higher: 149 to 153 °C for the first, 108 to 110 °C for the second.

Compared with `Cc1ccc(S(=O)(=O)OCC2COc3ccc4nc(C)oc4c3O2)cc1` (stereo unspecified), `CC(=O)N(C(C)=O)c1c(Cl)c(C)nn1C(CCN1C(=O)c2ccccc2C1=O)=NOS(=O)(=O)c1ccc(C)cc1` is higher in melting point: 123 °C for the first, 143 to 147 °C for the second.

Compared with `C=CCOC(=O)C(Cc1ccc2ccc3cccc4ccc1c2c34)(Cc1ccc2ccc3cccc4ccc1c2c34)C(=O)OCC=C`, `O=C(O)Cc1ccc2oc(-c3ccc(N4C=CC=CN4c4ccc(-c5nc6cc(CC(=O)O)ccc6o5)cc4)cc3)nc2c1` is higher in melting point: 178 to 180 °C for the first, greater than 300 °C for the second.

First: CCn1nc(-c2nc(C#N)c(N)nc2-c2ccccc2)ccc1=O
Second: CC(=O)c1cc(C[C@H](NC(=O)c2c(Cl)cccc2Cl)C(=O)O)ccc1-c1ccccc1
The melting point of the first is higher: greater than 250 °C for the first, 109 to 111 °C for the second.

Compared with `CCOC(=O)c1nn(-c2cccc(C(F)(F)F)c2)c2c1CCCC2`, `COCc1cn(-c2cccc(C(F)(F)F)c2)nc(C(C)=O)c1=O` is higher in melting point: 77 to 78 °C for the first, 141 to 143 °C for the second.

First: CC(C)(C)c1cc(C(=O)Nc2cccc(SCc3cncc4ccccc34)c2)ccc1O
Second: CCOC(=O)COc1ccc(-c2cc(O)c(SCCc3ccccc3)c(=O)o2)cc1
The melting point of the first is higher: 205 to 210 °C for the first, 169 to 171 °C for the second.

`COc1ccc(-c2cc(CO)c(=O)n(CC3CCCC3)n2)cc1F` and `Nc1cc(=O)n(CCCO)c2nc(NC3CCCCC3)ncc12` cannot be ordered by melting point: 130 to 133 °C for the first, 131 to 132 °C for the second.

Compared with `CCCC[C@H](NC(=O)[C@H](CC(C)C)NC(=O)COc1ccc(F)cc1)C(=O)CSCc1ccco1`, `COc1cc(CNC(=O)c2nc3cnn(CCOc4ccc(C(=O)O)cc4)c3c(=O)[nH]2)ccc1F` is higher in melting point: 88 to 91 °C for the first, 228 to 230 °C for the second.

First: CCCCCCCCCCCCCCCCCCN(OCCCC)C(CCCCCCCCCCCCCCCCC)P(=O)(OCCCC)OCCCC (stereo unspecified)
Second: CCCCCCCCCCCCCCCCCCOC(=O)P(=O)(O)O
The melting point of the first is lower: 38 to 40 °C for the first, 81 to 82 °C for the second.

Compared with `Cc1nc(-c2ccc(NC(=O)CCCC(=O)Nc3ccc(-c4noc(C)n4)cc3)cc2)no1`, `COc1cc(/C=C/C(=O)Oc2ccc(NC(C)=O)cc2)ccc1O` is lower in melting point: 235 to 237 °C for the first, 185 to 195 °C for the second.

First: C=C1N(C(C)(C)C)C(=O)OC12CCN(C(=O)CC)CC2
Second: Cc1ccc(CC2CCN(C(=O)CNc3ccc4c(c3)OCC(=O)N4)CC2)cc1
The melting point of the first is lower: 104 to 105 °C for the first, 206 to 208 °C for the second.

First: O=[N+]([O-])c1ccc(-c2ccc([N+](=O)[O-])c(Cl)c2)cc1Cl
Second: COc1cc(S(=O)(=O)C(c2cc(F)ccc2F)c2cc(N)ncc2Cl)ccc1Cl (stereo unspecified)
The melting point of the first is higher: 221 to 222 °C for the first, 198 to 200 °C for the second.

Compared with `CN1CCN(c2cccc3ccc(C(O)(c4ccccc4)c4ccccc4)cc23)CC1`, `Clc1ccc(Cn2cc(CN3CCC(c4ccccc4)(c4ccccc4)CC3)nn2)cc1` is lower in melting point: 218 °C for the first, 148 °C for the second.

Compared with `Cc1nc(C)c(Cl)c(NCc2nccc(SCCCSCCSc3ncccn3)c2C)n1`, `Cc1c(SCCN2CCOCC2)ccnc1CSc1nc2ccccc2n1C(=O)N(C)C` is higher in melting point: 112 to 115 °C for the first, 117 to 119 °C for the second.

First: CCC1(CO)COC2(CC(c3ccccc3)SC(c3ccccc3)C2)OC1 (stereo unspecified)
Second: O=C(OC1C(OCCBr)OC(COCc2ccccc2)C(O)C1OC(=O)c1ccccc1)c1ccccc1 (stereo unspecified)
The melting point of the first is higher: 128 °C for the first, 78 to 80 °C for the second.

First: CCC(=O)NC1c2cc3nonc3cc2OC(C)(C)C1O (stereo unspecified)
Second: Cc1nc2c(cc1C(=O)NC(=N)N)C(O)CCCC2 (stereo unspecified)
The melting point of the first is lower: 203 to 205 °C for the first, 225 to 226 °C for the second.

First: CN1CC(=O)NC1=NC(=O)Nc1cccc(Cl)c1
Second: COC(=O)c1ccc(CC(=O)c2cc(OC)c3c(c2)C(C)(C)CCC3(C)C)cc1
The melting point of the first is higher: 180 °C for the first, 143 to 144 °C for the second.

First: CCc1cn(C2CC(OC(C)=O)C(CCC(=O)Cc3c(Cl)cccc3Cl)O2)c(=O)[nH]c1=O (stereo unspecified)
Second: CN(CCOc1ccc(C=C2SC(=O)NC2=O)cc1)C(=O)c1ccccc1
The melting point of the first is higher: 186 °C for the first, 178 to 180 °C for the second.

First: COC(=O)Oc1ccc(C=Nc2ccc(C#N)cc2)cc1
Second: CN1C(=O)C(c2ccc(OCCCCBr)cc2)Sc2cc(Cl)ccc21 (stereo unspecified)
The melting point of the first is higher: 139 °C for the first, 70 to 72 °C for the second.

First: CON=C1CN(c2c(F)cc3c(=O)c(C(=O)O)cn(C4CC4)c3c2Cl)CC12CNC2
Second: Nc1c(F)c(N2CCNCC2)cc2c1c(=O)c(C(=O)O)cn2C1CC1
The melting point of the first is higher: 220 to 221 °C for the first, 214 to 216 °C for the second.

`CN(C)C=Nc1c(Cl)cc(NCc2ccc(N(C)C)cc2Br)cc1Cl` and `Cc1cc(C)c(C(=O)c2cccc(-n3ccnc3)c2)c(C)c1` cannot be ordered by melting point: 135 to 137 °C for the first, 134 to 136 °C for the second.

First: Cc1c(C)c2c(c(C)c1O)SC(c1ccccc1O)O2 (stereo unspecified)
Second: CCOC(=O)c1cc2ccc(F)c(C)c2[nH]1
The melting point of the first is higher: 175 to 176 °C for the first, 149 °C for the second.

First: Cc1ccccc1S(=O)(=O)OC1C2C(C(=O)N1Cc1ccc3c(c1)OCO3)C(c1ccc(Br)cc1)N(C)C2(C)C (stereo unspecified)
Second: Cc1ccn2c(-c3ccnc(-c4ccc(CN5CCOCC5)cc4)c3)c(-c3cccc(C)n3)nc2c1
The melting point of the first is lower: 172 to 173 °C for the first, 188 °C for the second.

First: Cc1c(-c2ccccc2)ncc2c(N3CCOC(C)C3)nnc(N3CCOC(C)C3)c12 (stereo unspecified)
Second: Cc1conc1-c1nnc2c3ccccc3c(OCc3nnccc3C(C)(C)C)nn12
The melting point of the first is lower: 96 to 99 °C for the first, 230 to 232 °C for the second.

First: Cc1ccc(S(=O)(=O)Cc2ccc(C(O)(C(F)(F)F)C(F)(F)F)cc2)cc1
Second: Fc1ccc(CNc2nc(Nc3cccc(C(F)(F)F)c3)nc(C(F)(F)F)n2)cc1
The melting point of the first is higher: 129 °C for the first, 106 to 107 °C for the second.

First: C[C@]1(COC(=O)N2CCC(Nc3ccc(C(F)(F)F)cc3)CC2)Cn2cc([N+](=O)[O-])nc2O1
Second: CCN(c1ccc(OCc2ccc(OC(F)(F)F)cc2)cc1)C1CCN(c2ccc(OC[C@H]3CCn4cc([N+](=O)[O-])nc4O3)cc2)CC1
The melting point of the first is higher: 137 to 140 °C for the first, 95.2 to 97 °C for the second.

First: C=CC(=O)N(C)CCCCCCCCCCCOc1ccc(C(=O)O)c(C(=O)O)c1
Second: CCCCCCCc1cc2cc(C(=O)OCC)ccc2[nH]1
The melting point of the first is higher: 95 °C for the first, 66 to 69 °C for the second.

First: C[Si](C)(C)OC1c2cc(Br)ccc2-c2ccc(Br)cc2C1O[Si](C)(C)C (stereo unspecified)
Second: COc1cc(OC)nc(C2(O)OC(=O)c3c(-c4ccco4)ccnc32)n1 (stereo unspecified)
The melting point of the first is lower: 144 to 145 °C for the first, 198 to 204 °C for the second.

`COc1ccc(C(O)(Cc2ccncc2)c2ccncc2)cc1OC1CCCC1` (stereo unspecified) and `COC(c1ccc(Cl)c2nc3n(c12)CCCN3c1ccc(Cl)cc1Cl)(C1CC1)C1CC1` cannot be ordered by melting point: 99 to 103 °C for the first, 99 to 100 °C for the second.

Compared with `Nc1ncc2ncn([C@H]3C=C[C@@H](O)C3)c2n1` (racemic), `O=C1c2cc(Cl)ccc2C(O)N1c1ccc2ccc(Cl)nc2n1` (stereo unspecified) is higher in melting point: 144 to 147 °C for the first, 295 to 297 °C for the second.

Compared with `COCCOCOCc1c(OC)ccc2c1Oc1c(ccc(OC)c1CO)N2C`, `COc1cc(-c2cc(=O)c3ccc(OCCCBr)cc3o2)cc(OC)c1OC` is higher in melting point: 68 to 70 °C for the first, 156 to 157 °C for the second.

Compared with `CCCCN1CNC(=O)NC1=O`, `CCOC(=O)N1CCN(CCNc2ncnc3c2sc2nc(-c4ccco4)c4c(c23)CC(C)(C)CC4)CC1` is lower in melting point: 205 to 207 °C for the first, 99.1 to 101 °C for the second.

First: C=CCNC(=S)Nc1cc(=N)n2c(n1)SCCC2
Second: c1ccc(CSc2cn3ccsc3n2)cc1
The melting point of the first is higher: 196 to 197 °C for the first, 76 to 77 °C for the second.

First: Fc1ccc(C2CSCC(=S)N2)cc1 (stereo unspecified)
Second: O=C(c1cccnc1)N1CCC(c2ccc(Br)cc2)=N1
The melting point of the first is lower: 107 to 108 °C for the first, 117 to 119 °C for the second.

Compared with `Cc1nnc2n1-c1sc(C#Cc3ccccn3)cc1C(c1ccccc1Cl)=NC2`, `Cc1nnc2ccc(-c3ccc(Cl)cc3)cn12` is higher in melting point: 153 to 155 °C for the first, 192 to 194 °C for the second.

First: Cc1ccc2c(C(=O)NC(C)C)c(NC(=O)c3cc(C(F)(F)F)nn3-c3ncccc3Cl)c(C)cc2n1
Second: CC(C)c1cccc(C(C)C)c1OC(=O)CCC(=O)O
The melting point of the first is higher: greater than 240 °C for the first, 101 to 102 °C for the second.

First: N#Cc1c(OCCO)nc(CCO)nc1N1CCc2ccccc2CC1
Second: Cc1nnc(CNc2c(C)cccc2C)s1
The melting point of the first is higher: 118 to 120 °C for the first, 68 to 69 °C for the second.
